These results are taken from patent publication US20250188093A1, “TYK2 INHIBITORS AND USES THEREOF” (Alumis Inc., priority 2022, published 2025).

In one test the target is T1, JAK1 JH2 (Homo sapiens, UniProt P23458).
T1 construct: JAK1 JH2
Put plainly: KINOMEscan binding, JAK1 JH2.

The target of test [1] is T2, human TYK2 (JH2domain-pseudokinase) (Homo sapiens, UniProt P29597).
T2 construct: host or cells: transiently transfected HEK293 cells; unpurified extract
The test can be described thus: TYK2 JH2 domain binding assay (KINOMEscan). As to the method: Binding constants for the compounds described herein against the JH2 domain were determined by the following protocol for a KINOMEscan® assay (DiscoveRx). A fusion protein of a partial length construct of human TYK2 (JH2domain-pseudokinase) (amino acids G556 to D888 based on reference sequence NP_003322.3) and the DNA binding domain of NFkB was expressed in transiently transfected HEK293 cells. From these HEK 293 cells, extracts were prepared in M-PER extraction buffer (Pierce) in the presence of Protease Inhibitor Cocktail Complete (Roche) and Phosphatase Inhibitor Cocktail Set II (Merck) per manufacturers' instructions. The TYK2 (JH2domain-pseudokinase) fusion protein was labeled with a chimeric double-stranded DNA tag containing the NFkB binding site fused to an amplicon for qPCR readout, which was added directly to the expression extract (the final concentration of DNA-tag in the binding reaction is 0.1 nM).
Streptavidin-coated magnetic beads (Dynal M280) were treated with a biotinylated small molecule ligand for 30 minutes at room temperature to generate affinity resins the binding assays. The liganded beads were blocked with excess biotin and washed with blocking buffer (SeaBlock (Pierce), 1% BSA, 0.05% Tween 20, 1 mM DTT) to remove unbound ligand and to reduce nonspecific binding.
The binding reaction was assembled by combining 16 μl of DNA-tagged kinase extract, 3.8 μl liganded affinity beads, and 0.18 μl test compound (PBS/0.05% Tween 20/10 mM DTT/0.1% BSA/2 μg/ml sonicated salmon sperm DNA)]. Extracts were used directly in binding assays without any enzyme purification steps at a ≥10,000-fold overall stock dilution (final DNA-tagged enzyme concentration <0.1 nM). Extracts were loaded with DNA-tag and diluted into the binding reaction in a two-step process. First extracts were diluted 1:100 in 1× binding buffer (PBS/0.05% Tween 20/10 mM DTT/0.1% BSA/2 μg/ml sonicated salmon sperm DNA) containing 10 nM DNA-tag. This dilution was allowed to equilibrate at room temperature for 15 minutes and then subsequently diluted 1:100 in 1× binding buffer. Test compounds were prepared as 111× stocks in 100% DMSO. Kds were determined using an 11-point 3-fold compound dilution series with three DMSO control points. All compounds for Kd measurements were distributed by acoustic transfer (non-contact dispensing) in 100% DMSO. The compounds were then diluted directly into the assays such that the final concentration of DMSO was 0.9%. All reactions were performed in polypropylene 384-well plates. Each was a final volume of 0.02 mL. Assays were incubated with shaking for 1 hour at room temperature. Then the beads were pelleted and washed with wash buffer (1×PBS, 0.05% Tween 20) to remove displaced kinase and test compound. The washed based were re-suspended in elution buffer (1×PBS, 0.05% Tween 20, 0.5 μM non-biotinylated affinity ligand) and incubated at room temperature with shaking for 30 minutes. The kinase concentration in the eluates was measured by qPCR. qPCR reactions were assembled by adding 2.5 μL of kinase eluate to 7.5 μL of qPCR master mix containing 0.15 μM amplicon primers and 0.15 μM amplicon probe. The qPCR protocol consisted of a 10 minute hot start at 95° C., followed by 35 cycles of 95° C. for 15 seconds, 60° C. for 1 minute.
Test compounds were prepared as 111× stocks in 100% DMSO. Kds were determined using an 11-point 3-fold compound dilution series with three DMSO control points. All compounds for Kd measurements were distributed by acoustic transfer (non-contact dispensing) in 100% DMSO. The compounds were then diluted directly into the assays such that the final concentration of DMSO was 0.9%. The Kds were determined using a compound top concentration of 30,000 nM. Kd measurements were performed in duplicate.
Binding constants (Kds) were calculated with a standard dose-response curve using the Hill equation: […]
The Hill Slope was set to −1. […]

The target of another test is T3, TYK2 JH1 (Homo sapiens, UniProt P29597).
T3 construct: TYK2 JH1
T3 sequence (P29597 897-1176 limits assumed): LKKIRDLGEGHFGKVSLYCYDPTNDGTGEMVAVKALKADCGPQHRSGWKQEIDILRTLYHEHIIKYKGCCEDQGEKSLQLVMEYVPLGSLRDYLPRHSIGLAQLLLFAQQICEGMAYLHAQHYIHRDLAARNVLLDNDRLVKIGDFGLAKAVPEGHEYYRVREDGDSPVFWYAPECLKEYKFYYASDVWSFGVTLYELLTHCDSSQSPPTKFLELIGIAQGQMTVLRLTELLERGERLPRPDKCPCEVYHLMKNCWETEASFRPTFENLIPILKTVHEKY
Put plainly: KINOMEscan binding, TYK2 JH1.

A further test addresses T4, JAK2 JH1 (Homo sapiens, UniProt O60674).
T4 construct: JAK2 JH1
Put plainly: KINOMEscan binding, JAK2 JH1.

Another test has as its target T5, JAK2 JH2 (Homo sapiens, UniProt O60674).
T5 construct: JAK2 JH2
Put plainly: KINOMEscan binding, JAK2 JH2.

The target in the next test is T6, JAK3 JH1 (Homo sapiens, UniProt P52333).
T6 construct: JAK3 JH1
T6 sequence (P52333 822-1111 limits assumed): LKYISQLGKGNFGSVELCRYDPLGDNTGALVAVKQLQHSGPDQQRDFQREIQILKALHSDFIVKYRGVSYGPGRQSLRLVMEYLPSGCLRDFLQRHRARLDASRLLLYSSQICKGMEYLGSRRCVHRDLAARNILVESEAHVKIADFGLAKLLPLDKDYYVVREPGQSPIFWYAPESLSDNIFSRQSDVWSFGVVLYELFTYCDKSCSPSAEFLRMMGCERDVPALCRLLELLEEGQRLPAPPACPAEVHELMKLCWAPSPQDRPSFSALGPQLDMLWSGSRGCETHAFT
Put plainly: KINOMEscan binding, JAK3 JH1.

A further test has as its target T7, JAK1 JH1 (Homo sapiens, UniProt P23458).
T7 construct: JAK1 JH1
The test can be described thus: KINOMEscan binding, JAK1 JH1.

For a further test, the system named is IFNa, PBMCs, p-STAT5. Put plainly: INFα induced pSTAT5 in human PBMC. It is filed as cell-based. The note with it: 0.25 h, IFNa 5000 units/ml, 15 minutes. How it is done:
Fresh Human PBMCs were resuspended in RPMI 1640 medium with 10% FBS. Cells were seeded in a round bottom 96-well plate at the concentration of 200,000 cells/well. A 10-point dilution series of test compound (top dose 10 uM, 1:5 dilution) was added to the well using the liquid dispenser (Tecan D300e) and incubated for 1 hour at 37 C. Then human INFα recombinant protein (R&D Systems) was added to the well at the final concentration of 5000 units/ml and incubated for 15 minutes at 37 C. Cell lysates were prepared and analyzed by Phospho STAT5 (Tyr693) Kit (Meso Scale Discovery) following manufacturer's protocol.
For calculation of the inhibition rate, the relative pSTAT5 signal of each well=pSTAT5 signal of each well−the average pSTAT5 signal of baseline.
The inhibition %=(the average pSTAT5 signal of INFα treatment wells−the relative of pSTAT5 signal in each compound containing well)/the average pSTAT5 signal of INFα treatment wells*100%
The curve was plotted as the inhibition % (y-axis) vs. compounds concentration (x-axis) and is fitted with log (inhibitor) vs. normalized response—Variable slope by GraphPad Prism7.0.

A further test deals with IFNa, PBMCs, p-STAT3. The test can be described thus: IFNa induced p-STAT3 in PBMCs. Type of test: cell-based. The note with it: PBMC; human PBMCs, IFNa stimulation.

T1 sequence (P23458 583-855 limits assumed): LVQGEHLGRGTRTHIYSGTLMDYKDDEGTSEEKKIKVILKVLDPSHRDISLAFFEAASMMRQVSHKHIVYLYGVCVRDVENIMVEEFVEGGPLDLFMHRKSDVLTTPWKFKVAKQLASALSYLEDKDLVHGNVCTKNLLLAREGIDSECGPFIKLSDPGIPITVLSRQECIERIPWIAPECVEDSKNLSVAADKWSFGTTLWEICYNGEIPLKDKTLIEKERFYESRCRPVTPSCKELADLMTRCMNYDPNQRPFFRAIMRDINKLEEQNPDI
T7 sequence (P23458 875-1153 limits assumed): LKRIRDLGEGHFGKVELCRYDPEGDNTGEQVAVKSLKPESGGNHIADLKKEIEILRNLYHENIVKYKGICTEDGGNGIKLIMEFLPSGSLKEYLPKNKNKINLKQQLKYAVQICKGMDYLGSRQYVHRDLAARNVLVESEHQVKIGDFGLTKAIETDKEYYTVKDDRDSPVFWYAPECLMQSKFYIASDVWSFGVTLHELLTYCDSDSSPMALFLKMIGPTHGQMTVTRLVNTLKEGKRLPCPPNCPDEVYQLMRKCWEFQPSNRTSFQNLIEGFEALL
T4 sequence (O60674 849-1124 limits assumed): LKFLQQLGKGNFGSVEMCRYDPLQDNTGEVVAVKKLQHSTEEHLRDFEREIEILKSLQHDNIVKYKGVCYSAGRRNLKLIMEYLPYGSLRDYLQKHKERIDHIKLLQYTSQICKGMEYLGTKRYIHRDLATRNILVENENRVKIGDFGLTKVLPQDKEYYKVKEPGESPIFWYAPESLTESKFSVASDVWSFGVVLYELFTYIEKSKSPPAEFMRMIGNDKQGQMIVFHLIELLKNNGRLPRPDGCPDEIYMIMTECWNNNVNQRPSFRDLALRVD
T5 sequence (O60674 545-809 limits assumed): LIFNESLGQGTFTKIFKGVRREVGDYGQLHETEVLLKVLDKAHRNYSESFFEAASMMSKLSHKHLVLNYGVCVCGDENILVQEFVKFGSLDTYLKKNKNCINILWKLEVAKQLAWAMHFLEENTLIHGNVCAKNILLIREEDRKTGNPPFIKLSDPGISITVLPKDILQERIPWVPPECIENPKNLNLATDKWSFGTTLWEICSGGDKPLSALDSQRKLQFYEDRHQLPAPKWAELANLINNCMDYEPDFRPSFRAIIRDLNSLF
T2 sequence (P29597 556-888): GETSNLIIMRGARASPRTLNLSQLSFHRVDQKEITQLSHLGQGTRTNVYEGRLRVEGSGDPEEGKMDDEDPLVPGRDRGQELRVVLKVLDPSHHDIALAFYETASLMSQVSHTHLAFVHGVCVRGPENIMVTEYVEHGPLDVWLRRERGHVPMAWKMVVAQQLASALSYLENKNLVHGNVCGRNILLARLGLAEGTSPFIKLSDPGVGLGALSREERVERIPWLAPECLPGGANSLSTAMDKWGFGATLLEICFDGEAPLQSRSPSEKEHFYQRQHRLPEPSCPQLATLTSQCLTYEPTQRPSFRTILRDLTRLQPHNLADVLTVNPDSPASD

“(1^3E,1^4E,6^1R,6^2R)-3^1-Methyl-1^7-(methylamino)-3^1H-5-oxa-2,7-diaza-1(5,3),3(4,6)-dipyrazolo[1,5-a]pyrimidina-6(1,2)-cyclopentanacyclooctaphan-8-one [Compound 2]”: the values for the Kd (on JAK1 JH2; in test [1]; on TYK2 JH1) were 1 to 10 µM, under 0.01 µM and at least 30 µM, respectively.
`CNc1cc2nc3c(cnn13)C(=O)N[C@@H]1CCC[C@@H]1OCc1cc(c3nnn(C)c3c1)N2` [Compound 9]: the equilibrium dissociation constant (Kd) (commonly the equilibrium constant for the complex coming apart) is 0.01 to 1 µM on JAK1 JH2, under 0.01 µM in [1] and at least 30 µM on TYK2 JH1.
Regarding `[2H]C1([2H])O[C@@H]2CCC[C@H]2NC(=O)c2cnc3c(NC)cc(nn23)Nc2cc1cc1c2nnn1C` [Compound 50], the dissociation constant (Kd) at JAK2 JH1 was 10 to 30 µM; on JAK2 JH2 it was 1 to 10 µM; at JAK1 JH2, 1 to 10 µM; at JAK3 JH1, 1 to 10 µM; in test [1] it was under 0.01 µM; on JAK1 JH1 it was at least 30 µM. The compound further yielded a Kd at TYK2 JH1 of at least 30 µM.
Turning to `CNc1cc2nn3c(cnc13)C(=O)N[C@@H]1CCC[C@H]1OCc1cc(c3nnn(C)c3c1)N2` [Compound 49], the Kd at JAK1 JH2 was 1 to 10 µM; in test [1] it was under 0.01 µM; at TYK2 JH1 it was at least 30 µM.
Take `CNc1cc2nn3c(cnc13)C(=O)N[C@@H]1CCC[C@H]1OCc1cc(c3c(c1)nnn3C)N2` [Compound 3]: the equilibrium dissociation constant (Kd) is at least 30 µM on JAK2 JH1; at least 30 µM at JAK2 JH2; 10 to 30 µM on JAK1 JH2; at least 30 µM at JAK3 JH1; under 0.01 µM in test [1]; at least 30 µM at JAK1 JH1. The compound further returned a Kd at TYK2 JH1 of at least 30 µM.
Regarding `CNc1cc2nn3c(cnc13)C(=O)N[C@@H]1CCC[C@@H]1OCc1cc(c3c(c1)nnn3C)N2` [Compound 6, (6^1S,6^2R,E)-3^1-Methyl-1^8-(methylamino)-3^1H-5-oxa-2,7-diaza-1(6,3),3(7,5)-diimidazo[1,2-b]pyridazina-6(1,2)-cyclopentanacyclooctaphan-8-one], the Kd at JAK2 JH1 was at least 30 µM; on JAK2 JH2, 1 to 10 µM; on JAK1 JH2, 0.01 to 1 µM; at JAK3 JH1 it was at least 30 µM; in test [1], under 0.01 µM; at JAK1 JH1, at least 30 µM. On TYK2 JH1, this compound came in with a Kd of at least 30 µM.
Consider `CNc1cc2nc3c(cnn13)C(=O)N1CC[C@H](C1)OCc1cc(c3nnn(C)c3c1)N2` [Compound 44], for which the dissociation constant Kd was 1 to 10 µM at JAK1 JH2, under 0.01 µM in test [1] and at least 30 µM at TYK2 JH1.
Turning to “(1^3E,1^4E,3^4E,6^1R,6^2R)-3^2-Methyl-1^7-(methylamino)-3^2H-5-oxa-2,7-diaza-1(5,3),3(4,6)-dipyrazolo[1,5-a]pyrimidina-6(1,2)-cyclopentanacyclooctaphan-8-one [Compound 10]”, the Kd on JAK1 JH2 was 1 to 10 µM; in test [1], under 0.01 µM; on TYK2 JH1, at least 30 µM.
With `CNc1cc2nc3c(cnn13)C(=O)N1CC[C@@H](C1)OCc1cc(c3nnn(C)c3c1)N2` [Compound 45], the Kd on JAK1 JH2 was 1 to 10 µM; in [1] it was under 0.01 µM; on TYK2 JH1, at least 30 µM.
`CNc1cc2nn3c(cnc13)Nc1cc(cc3c1ncn3C)COC1CCCC1NC2=O` (stereo not shown) [Compound 12, (6^1R,6^2R,E)-3^1-Methyl-1^8-(methylamino)-3^1H-5-oxa-2,7-diaza-1(6,3)-imidazo[1,2-b]pyridazina-3(4,6)-benzo[d]imidazola-6(1,2)-cyclopentanacyclooctaphan-8-one]: the Kd at JAK1 JH2 was 10 to 30 µM; in [1], under 0.01 µM; at TYK2 JH1 it was at least 30 µM.
Turning to `[2H]C1([2H])O[C@H]2CCC[C@H]2NC(=O)c2cnc3c(NC)cc(nn23)Nc2cc1cc1c2nnn1C` [Compound 51], the Kd is at least 30 µM at JAK2 JH1; 1 to 10 µM at JAK2 JH2; 0.01 to 1 µM at JAK1 JH2; 10 to 30 µM at JAK3 JH1; under 0.01 µM in test [1]; at least 30 µM on JAK1 JH1. This compound also returned a Kd at TYK2 JH1 of at least 30 µM.
For “(1^3E,1^4E,6^1S,6^2R)-3^1-Methyl-1^7-(methylamino)-3^1H-5-oxa-2,7-diaza-1(5,3),3(4,6)-dipyrazolo[1,5-a]pyrimidina-6(1,2)-cyclopentanacyclooctaphan-8-one [Compound 11]”, the dissociation constant Kd on JAK1 JH2 is 0.01 to 1 µM; in [1] it was under 0.01 µM; at TYK2 JH1 it was at least 30 µM.
On to `CNc1cc2nc3c(cnn13)C(=O)N[C@@H]1CCC[C@H]1OCc1cc(c3nn(C)nc3c1)N2` [Compound 8], for which the Kd was 0.01 to 1 µM at JAK1 JH2, under 0.01 µM in [1] and 10 to 30 µM on TYK2 JH1.
Take `CNc1cc2nn3c(cnc13)C(=O)N[C@@H]1CCC[C@H]1OCc1cc(c3nnn(C)c3c1)N2` [Compound 1]: the Kd is at least 30 µM at JAK2 JH1; 1 to 10 µM on JAK2 JH2; 10 to 30 µM on JAK3 JH1; under 0.01 µM in test [1]; at least 30 µM at JAK1 JH1. Further, the IC50 (in general, the concentration needed to halve the response being measured) in the test on IFNa, PBMCs, p-STAT5 was under 0.1 µM; in the test on IFNa, PBMCs, p-STAT3 it was under 0.1 µM.
For the compound `CNc1cc2nn3c(cnc13)C(=O)N[C@@H]1CCC[C@@H]1OCc1cc(c3nn(C)nc3c1)N2` [Compound 7], the Kd on JAK2 JH1 was at least 30 µM; on JAK2 JH2, 10 to 30 µM; on JAK1 JH2, 0.01 to 1 µM; on JAK3 JH1, at least 30 µM; in test [1] it was under 0.01 µM; on JAK1 JH1 it was at least 30 µM. Further, the Kd on TYK2 JH1 was at least 30 µM.
Consider `CNc1cc2nn3c(cnc13)C(=O)N[C@@H]1CCC[C@@H]1OCc1cc(c3nnn(C)c3c1)N2` [Compound 5], for which the Kd on JAK2 JH1 is at least 30 µM; on JAK2 JH2 it was 1 to 10 µM; on JAK1 JH2, 0.01 to 1 µM; on JAK3 JH1 it was at least 30 µM; in [1], under 0.01 µM; on JAK1 JH1 it was at least 30 µM. For the same compound, the Kd at TYK2 JH1 was at least 30 µM.
